# Assay: solvent given as SMILES
# Details: in C1CCCCC1
row,SMILES,emission maximum
1,CN(C)c1ccc(C(=O)Nc2cccc(Br)c2)cc1,338 nm
2,CN(C)c1ccc2c(c1)-c1ccccc1C2=O,491 nm
3,CSC1=C2C=C(c3cc4n(c3)[B-](F)(F)[N+]3=CC=CC3=C4c3c(C)cc(C)cc3C)C(C)=[N+]2[B-](F)(F)n2c(C)ccc21,652 nm
4,CCC1=C(C)C(=O)n2c1cc1c(c(C)c(C(=O)OCC(C)C)n1CC(C)C)c2=O,437 nm
5,CC(=O)c1c2c(cc3c(N(C)C)cccc13)CCC2,480 nm
6,COC(=O)c1nc(-c2cccc3ccccc23)oc1C,340 nm

# Same assay, conditions: in C1CCOC1
row,SMILES,emission maximum
1,CN(C)c1ccc(C(=O)Nc2cccc(Br)c2)cc1,455 nm
2,CCn1c2ccccc2c2cc(C#Cc3cc(C#Cc4ccc5c(c4)c4ccccc4n5CC)nc(SC)n3)ccc21,449 nm
3,O=C1c2cc(-n3c4ccccc4c4ccccc43)ccc2S(=O)(=O)c2ccc(-n3c4ccccc4c4ccccc43)cc21,592 nm
4,CC(C)(C)c1ccc(-c2c(-c3ccc(N(c4ccccc4)c4ccccc4)cc3)cc(-c3ccc(N(c4ccccc4)c4ccccc4)cc3)c(-c3ccc(C(C)(C)C)cc3)c2-c2ccc(C(C)(C)C)cc2)cc1,406 nm
5,O=S1(=O)C2=C(c3ccc(-c4ccc(N(c5ccccc5)c5ccccc5)cc4)cc31)C1(C3=C(c4ccccc41)S(=O)(=O)c1cc(-c4ccc(N(c5ccccc5)c5ccccc5)cc4)ccc13)c1ccccc12,599 nm
6,COc1cc2c(cc1-c1ccsc1)Cc1c3c(c4c(c1-2)-c1cc(OC)c(-c2ccsc2)cc1C4)C(=O)N(CCC(C)C)C3=O,487 nm
7,CC(=O)c1c2c(cc3c(N(C)C)cccc13)CCC2,543 nm
8,Nc1ccccc1/C=C/C(F)(F)F,427 nm

# Same assay, conditions: in C1COCCO1
row,SMILES,emission maximum
1,CN(C)c1ccc(/C=C/c2nc3ccc(Br)cc3nc2-c2ccccc2)cc1,555 nm
2,CC(=O)c1c2c(cc3c(N(C)C)cccc13)CCC2,534 nm

# Same assay, conditions: in CC1CCCCC1
row,emission maximum,SMILES
1,342 nm,COC(=O)C(NC(=O)OC(C)(C)C)c1ccc2oc(-c3ccc(C#N)cc3)nc2c1 (stereo unspecified)

# Same assay, conditions: in CC#N
row,emission maximum,SMILES
1,586 nm,CN(C)c1ccc(-n2c(-c3ccc(C#N)cc3)nc3ccccc32)cc1
2,557 nm,CN(C)c1ccc2c(c1)-c1ccccc1C2=O
3,344 nm,O=c1[nH]c(=O)n([C@@H]2O[C@H](CO)[C@@H](O)[C@H]2O)c2ccsc12
4,648 nm,CN(C)c1ccc(/C=C/c2nc3ccc(Br)cc3nc2-c2ccccc2)cc1
5,749 nm,CCNc1cc2c(cc1C)C(c1ccccc1C(=O)O)=C1CCCC(/C=C/C3=[N+](C)c4ccc5ccccc5c4C3(C)C)=C1O2
6,513 nm,COc1ccc2n1[B-](F)(F)[N+]1=CC=CC1=C2c1ccccc1
7,384 nm,COC(=O)C(NC(=O)OC(C)(C)C)c1ccc2oc(-c3ccc(C#N)cc3)nc2c1 (stereo unspecified)
8,343 nm,COC(=O)c1nc(-c2cccc3ccccc23)oc1C
9,393 nm,COc1nc(Nc2cc3ccc4cccc5ccc(c2)c3c45)nc(OC)n1

row,SMILES,emission maximum
1,CN(C)c1ccc(C(=O)Nc2cccc(Br)c2)cc1,496 nm
2,O=S1(=O)C2=C(c3ccc(-c4ccc(N(c5ccccc5)c5ccccc5)cc4)cc31)C1(C3=C(c4ccccc41)S(=O)(=O)c1cc(-c4ccc(N(c5ccccc5)c5ccccc5)cc4)ccc13)c1ccccc12,665 nm
3,CSC1=C2C=C(c3cc4n(c3)[B-](F)(F)[N+]3=CC=CC3=C4c3c(C)cc(C)cc3C)C(C)=[N+]2[B-](F)(F)n2c(C)ccc21,740 nm
4,CC(=O)c1c2c(cc3c(N(C)C)cccc13)CCC2,590 nm
5,CN(C)c1ccc(/C=C/c2ccc(-c3nnc(-c4ccc(-c5cc6ccccc6s5)cc4)o3)cc2)cc1,397 nm

# Same assay, conditions: in CC(=O)N(C)C
row,emission maximum,SMILES
1,716 nm,CC(C)(C)c1cc(/C2=C3\C=CC(=N3)/C(c3ccc(Br)cc3)=c3/cc/c([nH]3)=C(\c3ccc(Br)cc3)C3=N/C(=C(/c4cc(C(C)(C)C)cc(C(C)(C)C)c4)c4cc2c[nH]4)C=C3)cc(C(C)(C)C)c1

# Same assay, conditions: in CC(C)=O
row,SMILES,emission maximum
1,CSC1=C2C=C(c3cc4n(c3)[B-](F)(F)[N+]3=CC=CC3=C4c3c(C)cc(C)cc3C)C(C)=[N+]2[B-](F)(F)n2c(C)ccc21,694 nm
2,CN(C)c1ccc(/C=C/c2ccc(-c3nnc(-c4ccc(-c5cc6ccccc6s5)cc4)o3)cc2)cc1,395 nm

# Same assay, conditions: in CCCCCC
row,emission maximum,SMILES
1,346 nm,C[Si](C)(C)c1ccc2ccc3cccc4ccc1c2c34
2,466 nm,CC(C)[Si](C#Cc1c2nc3c(nc2c(C#C[Si](C(C)C)(C(C)C)C(C)C)c2nc4c(nc12)C1c2ccccc2C4c2ccccc21)C1c2ccccc2C3c2ccccc21)(C(C)C)C(C)C
3,514 nm,COc1ccc2n1[B-](F)(F)[N+]1=CC=CC1=C2c1ccccc1

row,SMILES,emission maximum
1,O=C1c2cc(-n3c4ccccc4c4ccccc43)ccc2S(=O)(=O)c2ccc(-n3c4ccccc4c4ccccc43)cc21,484 nm
2,O=S1(=O)C2=C(c3ccc(-c4ccc(N(c5ccccc5)c5ccccc5)cc4)cc31)C1(C3=C(c4ccccc41)S(=O)(=O)c1cc(-c4ccc(N(c5ccccc5)c5ccccc5)cc4)ccc13)c1ccccc12,485 nm

# Same assay, conditions: in CCCCCCCC
row,SMILES,emission maximum
1,CN(C)c1ccc(/C=C/c2ccc(-c3nnc(-c4ccc(-c5cc6ccccc6s5)cc4)o3)cc2)cc1,387 nm

# Same assay, conditions: in CCCCCCCCCCO
row,SMILES,emission maximum
1,CN(C)c1ccc(/C=C/c2ccc(-c3nnc(-c4ccc(-c5cc6ccccc6s5)cc4)o3)cc2)cc1,394 nm

# Same assay, conditions: in CCCCCCCCO
row,SMILES,emission maximum
1,CN(C)c1ccc(/C=C/c2ccc(-c3nnc(-c4ccc(-c5cc6ccccc6s5)cc4)o3)cc2)cc1,398 nm

# Same assay, conditions: in CCCCCO
row,SMILES,emission maximum
1,CN(C)c1ccc(/C=C/c2ccc(-c3nnc(-c4ccc(-c5cc6ccccc6s5)cc4)o3)cc2)cc1,399 nm

# Same assay, conditions: in CCCCOCCCC
row,emission maximum,SMILES
1,393 nm,COc1nc(Nc2cc3ccc4cccc5ccc(c2)c3c45)nc(OC)n1

# Same assay, conditions: in CCCO
row,SMILES,emission maximum
1,CN(C)c1ccc(/C=C/c2ccc(-c3nnc(-c4ccc(-c5cc6ccccc6s5)cc4)o3)cc2)cc1,399 nm

# Same assay, conditions: in CCO
row,emission maximum,SMILES
1,592 nm,CN(C)c1ccc2c(c1)-c1ccccc1C2=O
2,622 nm,CC[N+](CC)=c1ccc2c(-c3ccccc3C(=O)O)c3oc4cc(N)ccc4c3oc-2c1
3,741 nm,CCNc1cc2c(cc1C)C(c1ccccc1C(=O)O)=C1CCCC(/C=C/C3=[N+](C)c4ccc5ccccc5c4C3(C)C)=C1O2
4,344 nm,COC(=O)c1nc(-c2cccc3ccccc23)oc1C

row,SMILES,emission maximum
1,CC(=O)c1c2c(cc3c(N(C)C)cccc13)CCC2,634 nm

# Same assay, conditions: in CCOC(C)=O
row,emission maximum,SMILES
1,345 nm,O=c1[nH]c(=O)n([C@@H]2O[C@H](CO)[C@@H](O)[C@H]2O)c2ccsc12
2,514 nm,COc1ccc2n1[B-](F)(F)[N+]1=CC=CC1=C2c1ccccc1
3,342 nm,COC(=O)c1nc(-c2cccc3ccccc23)oc1C

row,SMILES,emission maximum
1,CCn1c2ccccc2c2cc(C#Cc3cc(C#Cc4ccc5c(c4)c4ccccc4n5CC)nc(SC)n3)ccc21,446 nm
2,CSC1=C2C=C(c3cc4n(c3)[B-](F)(F)[N+]3=CC=CC3=C4c3c(C)cc(C)cc3C)C(C)=[N+]2[B-](F)(F)n2c(C)ccc21,664 nm

# Same assay, conditions: in CCOCC
row,SMILES,emission maximum
1,CN(C)c1ccc(C(=O)Nc2cccc(Br)c2)cc1,445 nm

# Same assay, conditions: in CN(C)C=O
row,SMILES,emission maximum
1,CCn1c2ccccc2c2cc(C#Cc3cc(C#Cc4ccc5c(c4)c4ccccc4n5CC)nc(SC)n3)ccc21,502 nm
2,CN(C)c1ccc(/C=C/c2ccc(-c3nnc(-c4ccc(-c5cc6ccccc6s5)cc4)o3)cc2)cc1,401 nm

# Same assay, conditions: in CO
row,emission maximum,SMILES
1,376 nm,C[Si](C)(C)c1ccc2ccc3cccc4ccc1c2c34
2,580 nm,CN(CCO)c1ccc(/N=N/c2ccc([N+](=O)[O-])cc2)cc1
3,350 nm,O=c1[nH]c(=O)n([C@@H]2O[C@H](CO)[C@@H](O)[C@H]2O)c2ccsc12
4,744 nm,CCNc1cc2c(cc1C)C(c1ccccc1C(=O)O)=C1CCCC(/C=C/C3=[N+](C)c4ccc5ccccc5c4C3(C)C)=C1O2
5,498 nm,CCC1=C(C)C(=O)n2c1cc1c(c(C)c(C(=O)OCC(C)C)n1CC(C)C)c2=O
6,512 nm,COc1ccc2n1[B-](F)(F)[N+]1=CC=CC1=C2c1ccccc1
7,385 nm,COC(=O)C(NC(=O)OC(C)(C)C)c1ccc2oc(-c3ccc(C#N)cc3)nc2c1 (stereo unspecified)

row,SMILES,emission maximum
1,CC1=C(c2cccs2)C(C)=[N+]2C1=C(c1ccc(O)cc1)c1c(C)c(-c3cccs3)c(C)n1[B-]2(F)F,602 nm

# Reference: the Deep4Chem optical property database
